The values that follow come from patent US6544767B1, “Cathespin O2 protease” (Axys Pharmaceuticals, Inc., priority 1994, dated 2003).

Data set [1] has as its target T1, recombinant human cathepsin O2 (Homo sapiens, UniProt P43235).
T1 construct: the mature protein spans from position 115 to 329 (215 amino acids); made in house; host or cells: Sf9 insect cells (baculovirus, pVL1392)
T1 sequence (P43235 115-329): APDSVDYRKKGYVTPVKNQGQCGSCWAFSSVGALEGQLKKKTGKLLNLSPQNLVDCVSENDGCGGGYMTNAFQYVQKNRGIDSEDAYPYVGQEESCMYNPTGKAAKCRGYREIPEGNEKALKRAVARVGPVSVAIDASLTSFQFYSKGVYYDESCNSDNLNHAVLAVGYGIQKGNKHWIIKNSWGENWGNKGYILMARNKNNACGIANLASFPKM
The data set is described as follows: Inhibitor profile, fluorimetric enzyme assay with Z-FR-MCA. Conditions: for inhibition at 0.05 µM: [inhibitor] 0.05 μM. Format: biochemical. How it is done:
(§1) Human cathepsin O2 was assayed with a fluorogenic substrate Z-FR-MCA (MCA, methyl coumarylamide) in 100 mM sodium acetate buffer, containing 2.5 mM dithioerythreitol and 2.5 mM EDTA. Initial rates of hydrolysis of the MCA-substrate are monitored in 1-cm cuvettes at 25° C. at an excitation wavelength at 380 nm and an emission wavelength at 450 nm. The concentration of Z-FR-MCA is 5 μM under standard conditions.
The inhibition of cathepsin O2 was assayed at a constant substrate (5 μM Z-FR-MCA) and enzyme concentration (1 nM) in the presence of different inhibitor concentrations in the substrate assay buffer. Cathepsin O2 was preincubated with the inhibitors for 10 min and the reaction was started with substrate. The residual activity was monitored and percent inhibition was calculated from the uninhibited rate.
The efficacy of protease class specific inhibitors to inhibit cathepsin O2 was determined by adding the inhibitor to the purified enzyme in a fluorimetric enzyme assay (described above).

Data set [2] concerns the target T1, recombinant human cathepsin O2. The data set can be described thus: Hydrolysis of synthetic MCA substrates (kinetic parameters). The data set is classed as biochemical. How it is done:
as §1
The kinetic constants Vmax and Km were obtained by non-linear regression analysis using the program Enzfitter (Leatherbarrow, Enzfitter, Elsevier Biosoft, Cambridge, United Kingdom (1987).
The substrate specificity towards synthetic substrates was determined using the above described substrate assay.
For the calculation of the kinetic parameters kcat and Km the initial rates were obtained typically at 9-11 different substrate concentrations, and the results are fitted to equation (1). The enzyme concentration is determined by active site titration with E-64 (Kinder et al., Biochem. J. 201:367-372 (1982)). [formula]

The subject of a further data set is [^3H] elastin. The data set can be described thus: Elastin degradation assay. The data set is classed as biochemical. Here is the method: Elastin (2 mg) was incubated in I ml buffer containing 2.5 mM dithiothreitol, 2.5 mM EDTA and 0.05% Triton X-100 for the cathepsin O2, S and L assays. Aliquots were withdrawn after 10, 20, 30, 50, 90, 120 and 180 min, centrifuged for 1 min at 14,000×g and counted in a 24-well plate containing scintillation fluid with Liquid Scintillation counter (1450 Microbeta Plus, Wallac/Pharmacia). Concentrations of human cathepsins O2, S and L and bovine elastase in the elastin degradation assay were 65 nM, 28 nM, 80 nM and 80 nM, respectively. To determine the pH effect on protease activity the digests were carried out at pH 4.5 and 5.5 (100 mM sodium acetate, 2.5 mM each dithiothreitol and EDTA, 0.05% Triton X-100), and at pH 7.0 (100 mM Tris/HCl, 2.5 mM each of dithiothreitol and EDTA, 0.05% Triton X-100). Pancreatic bovine elastase (Boehringer, Mannheim, Ind.) was assayed under the same conditions except that neither dithiothreitol nor EDTA was added to the incubation mixture.

The nature of a further data set: pH stability at 37° C. Format: physicochemical. How it is done:
The residual activity was measured in time intervals using the above described fluorimetric substrate assay. The pH stability of cathepsins O2, S and L was studied at three different pH values. Recombinant human cathepsins O2, S and L were incubated at 37° C. in 100 mM sodium acetate buffer, pH 5.5, in 100 mM potassium phosphate buffer, pH 6.5 and in 100 mM Tris/HCl, pH 7.5 containing 5 mM dithiothreitol and 2.5 mM EDTA. Incubating for 0.5, 1, 2 and 4 hours, the activity remaining was determined using 5 μM Z-FR-MCA for cathepsin O2 (100 mM potassium phosphate buffer, pH 6.5) and cathepsin L (100 mM sodium acetate buffer, pH 5.5) and 5 μM Z-VVR-MCA for cathepsin S (100 mM potassium phosphate buffer, pH 6.5).

The conditions of data set [3]: from literature; cited from earlier work.
Another data set is described as follows: pH activity profile. Format: biochemical. Conditions: calculated from (pK1 + pK2)/2. Here is the method: Initial rates of substrate hydrolysis were monitored as described above. The pH activity profile of human cathepsin O2 was obtained at 1 μM substrate (Z-FR-MCA) concentration ([S]<<Km where the initial rate vo is directly proportional to the kcat/Km value). The following buffers were used for the pH activity profile: 100 mM sodium citrate (pH 2.8-5.6) and 100 mM sodium phosphate (pH 5.8-8.0). All buffers contained 1 mM EDTA and 0.4 M NaCl to minimize the variation in ionic strength. A three protonation model (Khouri et al., Biochem. 30:8929-8936 (1991)) was used for least square regression analysis of the pH activity data. The data were fitted to the following equation.
(kcat/Km)obs=(kcat/Km)/([H^+]/K1+1+K2/[H^+])

For data set [4], the system named is denatured soluble calf skin collagen. The data set is described as follows: Gelatinase activity, SDS-PAGE. The data set is classed as biochemical. How it is done: FIGS. 9A and 9B depict SDS PAGE of type I collagen (soluble calf skin collagen) after digestion with recombinant human cathepsin O2 and L and bovine trypsin. FIG. 9A: Collagenase activity: Digestion of soluble calf skin collagen at 28° C. and at pH 4.0, 5.0, 5.5, 6.0, 6.5, 7.0 by human cathepsins O2, S and L (each 50 nM) for 12 hours. The reaction was stopped by addition of 10 μM E-64. Untreated soluble collagen was used as standard (S). FIG. 9B: Gelatinase activity: Digestion of denatured soluble calf skin collagen (10 min heated at 70° C.) at 28° C. and at pH 4.0, 5.0, 5.5, 6.0, 6.5, 7.0 by human cathepsin O2 (0.1 nM), cathepsin L (0.2 nM) and human cathepsin S (1 nM). Molecular mass standards are indicated in the left lane.
Soluble calf skin Type I collagen was diluted to 0.4 mg/ml into 100 mM-sodium acetate buffer, pH 4.5, 5.0, 5.5, in 100 mM-potassium phosphate buffer, pH 6.0, 6.5 and 100 mM-Tris/HCl, pH 7.0 containing 2 mM-dithiotreitol/2 mM-EDTA. Human cathepsins O2, S and L and bovine trypsin (Sigma) were incubated at concentrations of 100 nM enzyme concentration for 10 hours at 28° C. To measure the gelatinase activity of cathepsins O2 and S, Type I collagen was heated for 10 min at 70° C. prior to incubation with the proteases. In the presence of 1 nM proteases the reaction mix was incubated for 30 min at 28° C. […]

Where two headings read alike, the source gives them in different places. Non-standard residues stand in square brackets, D forms with d. Residues, ends and D or L forms follow the SMILES beside them. *: point of attachment. Sta = CC(C)C[C@H](N)[C@@H](O)CC(=O)O; AMC = Cc1cc(=O)oc2cc(N*)ccc12; Isovaleryl = CC(C)CC(=O)*; Cbz = O=C(OCc1ccccc1)*; CHN2 = [N-]=[N+]=C*

In general, % inhibition refers to the share of the control response that was lost under treatment. With `CC(C)C[C@H](NC(=O)[C@H]1O[C@@H]1C(=O)O)C(=O)NCCCCN=C(N)N` [E-64], in data set [1] ([inhibitor] 0.1 μM), the “% inhibition” value came out at 100%. Also, the “inhibition of enzyme activity” value in data set [1] (concentrations above 0.1 μM) is on record as “completely inhibit”.

Turning to `O=c1oc(Cl)c(Cl)c2ccccc12` [DCI], in data set [1] ([inhibitor] 0.1 mM), the “% inhibition” value was determined as 0%.

In general, inhibition refers to the drop in the measured response relative to a control, in per cent. As for `CC(C)CC(=O)N[C@H](C(=O)N[C@H](C(=O)N[C@@H](CC(C)C)[C@@H](O)CC(=O)N[C@@H](C)C(=O)N[C@@H](CC(C)C)[C@@H](O)CC(=O)O)C(C)C)C(C)C` [pepstatin] (Isovaleryl-VV[Sta]A[Sta]-OH), in data set [1] ([inhibitor] 0.1 μM), the inhibition at 0.1 µM was determined as 0%.

In general, Km refers to the concentration of substrate that gives half-maximal velocity. For orientation: kcat means the number of substrate molecules converted per active site and unit of time at saturation. For Cbz-Val-Arg-{AMC}, in data set [2], the Km was determined as 13.1 ± 5.6 µM and the catalytic constant (kcat) is 1.06 ± 0.16 s⁻¹.

Take `Cc1cc(=O)oc2cc(NC(=O)[C@H](CCCN=C(N)N)NC(=O)[C@H](CC(C)C)NC(=O)OCc3ccccc3)ccc12` [Z-LR-MCA]: in data set [2], the Michaelis-Menten constant (Km) amounted to 3.8 ± 0.8 µM and the kcat was 0.98 ± 0.39 s⁻¹.

Take `[N-]=[N+]=CC(=O)[C@H](Cc1ccccc1)NC(=O)[C@H](Cc1ccccc1)NC(=O)OCc1ccccc1` [Z-FF-CHN2] (Cbz-Phe-Phe-CHN2): the “% inhibition” value in data set [1] ([inhibitor] 0.1 μM) is given as 90%.

For the compound `O=C(O)CN(CCN(CC(=O)O)CC(=O)O)CC(=O)O` [EDTA], the “% inhibition” value in data set [1] ([inhibitor] 4 mM) is listed as 0%. Also, the “effect on the activity of cathepsin O2” value in data set [1] (concentration of 4 mM) was “No effect”. Further, the “inhibition of cathepsin O2” value in data set [1] (higher concentrations (>5 mM)) was “partial non-specific inhibition”.

On to `O=S(=O)(F)Cc1ccccc1` [PMSF], for which the “% inhibition” value in data set [1] ([inhibitor] 1 mM) is on record as 0%.

Regarding `Cl.NCCc1ccc(S(=O)(=O)F)cc1` [Befablock], the “% inhibition” value in data set [1] ([inhibitor] 0.2 mM) was found to be 0%.

In the case of `CC(=O)N[C@@H](CC(C)C)C(=O)N[C@@H](CC(C)C)C(=O)N[C@H](C=O)CCCNC(=N)N` [leupeptin], in data set [1], the inhibition at 0.05 µM was 85%.

For the compound `Cc1cc(=O)oc2cc(NC(=O)[C@H](CCCN=C(N)N)NC(=O)[C@H](CCCN=C(N)N)NC(=O)OCc3ccccc3)ccc12` [Z-RR-MCA] (Cbz-Arg-Arg-{AMC}), in data set [2], the Km came to 23 ± 4 µM, the kcat amounted to 0.0005 ± 0.0002 s⁻¹ and the substrate quality entry is given as “very poor substrate”.

For `C[C@H](NC(=O)[C@H](Cc1ccccc1)NC(=O)OCc1ccccc1)C(=O)C=[N+]=[N-]` [Z-FA-CHN2], the “% inhibition” value in data set [1] ([inhibitor] 0.1 μM) was found to be 100%.

In the case of “cathepsin L: recombinant human cathepsin L provided by Dr. Mort [reference compound]”, the figures for the elastinolytic activity in data set [^3H] elastin (pH 4.5), in data set [^3H] elastin (pH 5.5) and in data set [^3H] elastin (pH 7.0) were 18 mg/min/μmol enzyme, 32 mg/min/μmol enzyme and 0 mg/min/μmol enzyme, respectively. The “Residual activity (%)” value is 87% in “pH stability at 37° C.” (pH 5.5, 37° C., 0.5 hr); 78% in “pH stability at 37° C.” (pH 5.5, 37° C., 1 hr); 71% in the data set “pH stability at 37° C.” (pH 5.5, 37° C., 2 hr); 51% in the data set “pH stability at 37° C.” (pH 5.5, 37° C., 4 hr); 12% in “pH stability at 37° C.” (pH 6.5, 37° C., 0.5 hr); 0% in “pH stability at 37° C.” (pH 6.5, 37° C., 2 hr). In addition, the “Residual activity (%)” value is 0% in the data set “pH stability at 37° C.” (pH 6.5, 37° C., 4 hr); 0% in “pH stability at 37° C.” (pH 7.5, 37° C., 0.5 hr); 0% in “pH stability at 37° C.” (pH 7.5, 37° C., 1 hr); 0% in “pH stability at 37° C.” (pH 7.5, 37° C., 2 hr); 0% in the data set “pH stability at 37° C.” (pH 7.5, 37° C., 4 hr). Further, the “pK1 of pH activity profile” value in data set [3] is reported as 4.22 ± 0.28. Moreover, the “pK1′ of pH activity profile” value in data set [3] is on record as 3.33 ± 0.14. Also, the “pK2 of pH activity profile” value in data set [3] is recorded as 6.95 ± 0.09. In addition, in the data set “pH activity profile”, the pH optimum is on record as 5.6. Besides, the “pH range of gelatinase activity” value in data set [4] is reported as 4.5-5.5.

Regarding `CCCC[C@@H](C=O)NC(=O)[C@H](CC(C)C)NC(=O)OCc1ccccc1` [calpeptin], the inhibition at 0.1 µM in data set [1] ([inhibitor] 0.1 μM) stood at 100%.

As for Cbz-Val-Val-Arg-{AMC}, in data set [2], the Km amounted to 18.5 ± 1.5 µM and the kcat is 0.01 ± 0.004 s⁻¹.

As for `CC(C)C[C@H](NC(=O)[C@@H](NC(=O)N[C@@H](Cc1ccccc1)C(=O)O)[C@@H]1CCN=C(N)N1)C(=O)N[C@H](C=O)Cc1ccccc1` [chymostatin], in data set [1], the inhibition at 0.05 µM stood at 64%.

Z-LLR-MCA: in data set [2], the Michaelis-Menten constant (Km) came to 0.4 ± 0.1 µM and the catalytic constant (kcat) came out at 0.02 ± 0.008 s⁻¹. The Km in data set [2] (text value) was 0.4 µM.

Regarding `Cc1cc(=O)oc2cc(NC(=O)C(CCCN=C(N)N)NC(=O)C(Cc3ccccc3)NC(=O)OCc3ccccc3)ccc12` (stereo not drawn) [Z-FR-MCA] (Cbz-Phe-Arg-{AMC}; configuration not given here), in data set [2], the Km came out at 7.5 ± 3.4 µM and the kcat turned out to be 0.90 ± 0.20 s⁻¹.

`O=C(O)CI` [iodo acetate]: the “% inhibition” value in data set [1] ([inhibitor] 50 μM) was determined as 60%.
